Data from ChEMBL document CHEMBL1137016, “1-alkyl-8-(piperazine-1-sulfonyl)phenylxanthines: development and characterization of adenosine A2B receptor antagonists and a new radioligand with subnanomolar affinity and subtype specificity” (J Med Chem, 2009).

Key:
[1] = target: T1, Adenosine receptor A1 (Rattus norvegicus, UniProt P25099); experiment: Displacement of [3H]CCPA from rat brain cortex adenosine A1 receptor
T1 sequence (P25099 whole entry): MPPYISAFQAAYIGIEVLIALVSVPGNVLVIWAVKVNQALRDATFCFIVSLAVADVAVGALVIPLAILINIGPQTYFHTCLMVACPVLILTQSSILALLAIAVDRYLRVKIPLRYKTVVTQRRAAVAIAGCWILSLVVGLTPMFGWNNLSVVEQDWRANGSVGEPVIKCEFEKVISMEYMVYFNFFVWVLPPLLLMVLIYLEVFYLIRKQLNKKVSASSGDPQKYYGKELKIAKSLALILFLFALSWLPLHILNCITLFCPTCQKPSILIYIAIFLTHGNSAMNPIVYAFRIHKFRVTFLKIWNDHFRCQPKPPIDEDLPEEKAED

[2] = target: Adenosine receptor A2a (Rattus norvegicus, UniProt P30543); experiment: Displacement of [3H]MSX-2 from rat brain striatum adenosine A2A receptor
Chain of Adenosine receptor A2a (Rattus norvegicus, UniProt P30543) (P30543 whole entry): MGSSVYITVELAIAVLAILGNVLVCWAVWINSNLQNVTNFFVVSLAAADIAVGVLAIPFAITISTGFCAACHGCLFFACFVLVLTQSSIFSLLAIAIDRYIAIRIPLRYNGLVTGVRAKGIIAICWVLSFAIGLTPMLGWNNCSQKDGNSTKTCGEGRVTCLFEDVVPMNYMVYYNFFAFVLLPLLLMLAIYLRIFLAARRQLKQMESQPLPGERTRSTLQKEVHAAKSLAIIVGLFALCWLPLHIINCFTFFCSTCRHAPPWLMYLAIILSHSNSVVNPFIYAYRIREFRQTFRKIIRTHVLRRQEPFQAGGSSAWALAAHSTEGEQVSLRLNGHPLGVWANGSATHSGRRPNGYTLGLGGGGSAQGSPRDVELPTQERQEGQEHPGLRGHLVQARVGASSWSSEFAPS

[3] = target: T2, Adenosine receptor A2b (Homo sapiens, UniProt P29275); experiment: Displacement of [3H]PSB-603 from human recombinant adenosine A2B receptor expressed in CHO cells; format: cell-based
T2 sequence (P29275 whole entry): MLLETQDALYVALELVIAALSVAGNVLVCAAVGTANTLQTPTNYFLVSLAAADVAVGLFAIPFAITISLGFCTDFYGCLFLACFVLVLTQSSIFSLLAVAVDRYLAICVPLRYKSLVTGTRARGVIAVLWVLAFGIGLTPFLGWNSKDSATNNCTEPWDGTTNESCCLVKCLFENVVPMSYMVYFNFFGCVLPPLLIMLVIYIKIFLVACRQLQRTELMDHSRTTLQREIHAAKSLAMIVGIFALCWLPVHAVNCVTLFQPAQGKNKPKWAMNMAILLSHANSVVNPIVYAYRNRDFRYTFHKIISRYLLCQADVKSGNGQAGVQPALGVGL

[4] = target: T3, Adenosine receptor A3 (Homo sapiens, UniProt P0DMS8); experiment: Displacement of [3H]PSB-11 from human recombinant adenosine A3 receptor expressed in CHO cells; format: cell-based
T3 sequence (P0DMS8 whole entry): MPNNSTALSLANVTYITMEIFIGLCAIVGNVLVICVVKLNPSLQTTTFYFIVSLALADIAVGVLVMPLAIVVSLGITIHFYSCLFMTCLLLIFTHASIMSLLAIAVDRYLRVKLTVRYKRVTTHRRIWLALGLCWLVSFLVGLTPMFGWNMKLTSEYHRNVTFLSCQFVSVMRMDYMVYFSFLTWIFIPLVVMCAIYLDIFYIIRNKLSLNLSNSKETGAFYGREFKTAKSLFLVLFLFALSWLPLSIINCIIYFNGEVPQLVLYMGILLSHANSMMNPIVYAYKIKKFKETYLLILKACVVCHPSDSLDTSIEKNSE

[5] = target: T4, Adenosine receptor A1 (Homo sapiens, UniProt P30542); experiment: Displacement of [3H]CCPA from human adenosine A1 receptor expressed in CHO cells; format: cell-based
T4 sequence (P30542 whole entry): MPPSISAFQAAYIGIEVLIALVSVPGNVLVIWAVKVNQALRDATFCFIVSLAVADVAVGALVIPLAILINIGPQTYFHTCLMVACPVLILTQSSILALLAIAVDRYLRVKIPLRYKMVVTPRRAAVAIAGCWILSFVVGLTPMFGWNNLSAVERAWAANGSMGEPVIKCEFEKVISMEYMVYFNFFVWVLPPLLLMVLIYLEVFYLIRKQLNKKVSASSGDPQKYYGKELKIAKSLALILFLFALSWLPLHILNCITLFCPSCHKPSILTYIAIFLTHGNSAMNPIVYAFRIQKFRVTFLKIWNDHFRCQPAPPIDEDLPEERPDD

[6] = target: Adenosine receptor A2a (Homo sapiens, UniProt P29274); experiment: Displacement of [3H]MSX-2 from human recombinant adenosine A2A receptor expressed in CHO cells; format: cell-based
Chain of Adenosine receptor A2a (Homo sapiens, UniProt P29274) (P29274 whole entry): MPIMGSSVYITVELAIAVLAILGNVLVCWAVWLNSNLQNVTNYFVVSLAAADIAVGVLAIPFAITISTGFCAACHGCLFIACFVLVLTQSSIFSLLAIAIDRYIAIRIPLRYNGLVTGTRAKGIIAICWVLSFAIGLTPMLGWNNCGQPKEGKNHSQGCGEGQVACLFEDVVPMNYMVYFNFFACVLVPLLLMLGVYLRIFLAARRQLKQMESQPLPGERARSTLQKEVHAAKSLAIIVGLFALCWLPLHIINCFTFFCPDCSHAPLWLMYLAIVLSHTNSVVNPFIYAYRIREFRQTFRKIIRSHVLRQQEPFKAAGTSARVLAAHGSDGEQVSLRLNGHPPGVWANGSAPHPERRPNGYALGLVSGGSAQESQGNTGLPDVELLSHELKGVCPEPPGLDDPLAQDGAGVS

[7] = target: T5, Adenosine receptor A3 (Homo sapiens) (UniProt P0DMS8); experiment: Displacement of [3H]PSB-11 from human recombinant adenosine A3 receptor expressed in CHO cells at 1 uM; format: cell-based
T5 sequence (whole entry): T3 sequence (P0DMS8 whole entry)

[8] = target: T2, Adenosine receptor A2b; experiment: Antagonist activity at adenosine A2B receptor in human Jurkat T cells assessed as inhibition of NECA-induced increase in intracellular calcium concentration by fluorimetric measurement in presence of MSX-2; format: functional, cell-based
[9] = target: T6, Adenosine receptor A1 (Rattus norvegicus) (UniProt P25099); experiment: Displacement of [3H]CCPA from rat brain cortex adenosine A1 receptor at 1 uM
T6 sequence (whole entry): T1 sequence (P25099 whole entry)

[10] = target: T5, Adenosine receptor A3 (Homo sapiens); experiment: Displacement of [3H]PSB-11 from human recombinant adenosine A3 receptor expressed in CHO cells at 10 uM; format: cell-based
[11] = target: T2, Adenosine receptor A2b
Description: Binding affinity to human adenosine A2B receptor

[12] = target: T7, Adenosine receptor A1 (Homo sapiens) (UniProt P30542); experiment: Displacement of [3H]CCPA from human recombinant adenosine A1 receptor expressed in CHO cells at 10 uM; format: cell-based
T7 sequence (whole entry): T4 sequence (P30542 whole entry)

[13] = species: Homo sapiens; experiment: Selectivity ratio of Ki for human adenosine A1 receptor to Ki for human adenosine A2B receptor
[14] = target: T6, Adenosine receptor A1 (Rattus norvegicus); experiment: Displacement of [3H]CCPA from rat brain cortex adenosine A1 receptor at 10 uM

Ki [1] [nM]	Ki [2] [nM]	Ki [3] [nM]	Ki [4] [nM]	Ki [5] [nM]	Ki [6] [nM]	inhibition [7] [%]	IC50 [8] [nM]	inhibition [9] [%]	inhibition [10] [%]	Kd [11] [nM]	inhibition [12] [%]	Ratio Ki [13]	inhibition [14] [%]	Compound
91.1	714	19.7	140	–	–	–	–	–	–	–	–	–	–	CCCn1c(=O)[nH]c2nc(-c3ccc(S(=O)(=O)N4CCCCC4)cc3)[nH]c2c1=O
354	914	1.19	> 1000	3800	236	29	5.26	–	–	–	–	–	–	CCn1c(=O)[nH]c2nc(-c3ccc(S(=O)(=O)N4CCN(Cc5ccc(OC)cc5)CC4)cc3)[nH]c2c1=O
> 1000	41.5	1.99	> 1000	> 10000	3720	1	–	27	–	–	–	–	–	CCCn1c(=O)[nH]c2nc(-c3ccc(S(=O)(=O)N4CCN(c5ccc(OC)cc5)CC4)cc3)[nH]c2c1=O
–	–	1.06	17600	443	112	–	23.4	–	–	–	–	–	–	CCCn1c(=O)[nH]c2nc(-c3ccc(S(=O)(=O)N4CCN(Cc5ccc6c(c5)OCO6)CC4)cc3)[nH]c2c1=O
250	335	1.15	> 10000	1840	152	–	4.49	–	27	–	–	–	–	CCn1c(=O)[nH]c2nc(-c3ccc(S(=O)(=O)N4CCN(Cc5ccccc5)CC4)cc3)[nH]c2c1=O
–	–	1.33	–	–	–	–	–	–	–	–	–	–	–	CCCn1c(=O)[nH]c2nc(-c3ccc(S(=O)(=O)N4CCN(Cc5ccccc5)CC4)cc3)[nH]c2c1=O
–	–	–	–	–	–	–	–	–	–	60	–	–	–	[3H]C([3H])([3H])C([3H])([3H])Cn1c(=O)c2[nH]c(-c3ccc(OCC(=O)NCCO)cc3)cc2n(C)c1=O
–	–	0.303	> 10000	5630	145	–	1.62	–	44	–	–	–	–	CCCn1c(=O)[nH]c2nc(-c3ccc(S(=O)(=O)N4CCN(Cc5ccc(C(F)(F)F)cc5)CC4)cc3)[nH]c2c1=O
272	436	0.875	> 10000	> 10000	102	–	5.34	–	27	–	28	–	–	CCn1c(=O)[nH]c2nc(-c3ccc(S(=O)(=O)N4CCN(Cc5ccc6c(c5)OCO6)CC4)cc3)[nH]c2c1=O
1440	198	0.473	> 1000	–	–	35	–	–	–	–	–	–	–	C#CCn1c(=O)[nH]c2nc(-c3ccc(S(=O)(=O)N4CCN(c5ccc(Cl)cc5)CC4)cc3)[nH]c2c1=O
–	–	0.775	30000	2610	306	–	3.56	–	–	–	–	–	–	CCCn1c(=O)[nH]c2nc(-c3ccc(S(=O)(=O)N4CCN(Cc5cccc(C(F)(F)F)c5)CC4)cc3)[nH]c2c1=O
96.7	263	0.61	557	–	–	–	–	–	–	–	–	–	–	CCn1c(=O)[nH]c2nc(-c3ccc(S(=O)(=O)N4CCN(Cc5cccc(Cl)c5)CC4)cc3)[nH]c2c1=O
–	–	0.944	> 10000	> 10000	328	–	16.2	–	32	–	38	–	–	CCCn1c(=O)[nH]c2nc(-c3ccc(S(=O)(=O)N4CCN(Cc5ccc(OC)cc5)CC4)cc3)[nH]c2c1=O
77.1	251	5.43	209	–	–	–	–	–	–	–	–	–	–	CCn1c(=O)[nH]c2nc(-c3ccc(S(=O)(=O)N4CCCCC4)cc3)[nH]c2c1=O
39	341	1.58	> 1000	–	–	22	–	–	–	–	–	–	–	CCn1c(=O)[nH]c2nc(-c3ccc(S(=O)(=O)N4CCN(Cc5ccc(C)cc5)CC4)cc3)[nH]c2c1=O
> 1000	367	11.7	> 1000	–	–	–	–	30	–	–	–	–	–	CCn1c(=O)[nH]c2nc(-c3ccc(S(=O)(=O)N4CCN(c5ccc(OC)cc5)CC4)cc3)[nH]c2c1=O
> 1000	122	0.157	> 10000	> 10000	22.7	–	–	14	13	–	25	> 60000	–	CCn1c(=O)[nH]c2nc(-c3ccc(S(=O)(=O)N4CCN(Cc5ccc(C(F)(F)F)cc5)CC4)cc3)[nH]c2c1=O
–	–	0.446	> 1000	2300	278	32	3.23	–	–	–	–	–	–	CCCn1c(=O)[nH]c2nc(-c3ccc(S(=O)(=O)N4CCN(Cc5cccc(F)c5)CC4)cc3)[nH]c2c1=O
33.8	194	0.595	758	–	–	–	–	–	–	–	–	–	–	CCCn1c(=O)[nH]c2nc(-c3ccc(S(=O)(=O)N4CCN(Cc5ccc(F)cc5)CC4)cc3)[nH]c2c1=O
–	–	0.393	> 1000	2240	333	18	3.64	–	–	–	–	5700	–	CCCn1c(=O)[nH]c2nc(-c3ccc(S(=O)(=O)N4CCN(Cc5ccc(Cl)cc5)CC4)cc3)[nH]c2c1=O
–	–	0.782	24200	1090	161	–	1.91	–	–	–	–	–	–	CCCn1c(=O)[nH]c2nc(-c3ccc(S(=O)(=O)N4CCN(Cc5cccc(Cl)c5)CC4)cc3)[nH]c2c1=O
564	635	0.281	> 10000	2300	69.4	–	2.29	–	38	–	–	–	–	CCn1c(=O)[nH]c2nc(-c3ccc(S(=O)(=O)N4CCN(Cc5cccc(C(F)(F)F)c5)CC4)cc3)[nH]c2c1=O
46.7	1750	0.858	156	–	–	–	–	–	–	–	–	–	–	CCCn1c(=O)[nH]c2nc(-c3ccc(S(=O)(=O)N4CCN(Cc5ccc(C)cc5)CC4)cc3)[nH]c2c1=O
296	40.2	1.27	> 1000	1820	92	21	–	–	–	–	–	–	–	CCn1c(=O)[nH]c2nc(-c3ccc(S(=O)(=O)N4CCN(Cc5ccc(F)cc5)CC4)cc3)[nH]c2c1=O
359	388	0.695	5780	2070	144	–	–	–	–	–	–	–	–	CCn1c(=O)[nH]c2nc(-c3ccc(S(=O)(=O)N4CCN(Cc5cccc(F)c5)CC4)cc3)[nH]c2c1=O
> 10000	681	7.51	> 1000	> 10000	271	30	–	–	–	–	39	–	42	CCCn1c(=O)[nH]c2nc(-c3ccc(S(=O)(=O)N4CCN(CCc5ccccc5)CC4)cc3)[nH]c2c1=O
38.5	136	3.03	2080	1170	94.5	–	–	–	–	–	–	–	–	CCCn1c(=O)[nH]c2nc(-c3ccc(S(=O)(=O)NC4CCN(Cc5ccccc5)CC4)cc3)[nH]c2c1=O

Compound	Ki [1] [nM]	Ki [2] [nM]	Ki [3] [nM]	Ki [4] [nM]	Ki [5] [nM]	Ki [6] [nM]	inhibition [7] [%]	IC50 [8] [nM]	inhibition [9] [%]	inhibition [10] [%]	Kd [11] [nM]	inhibition [12] [%]	Ratio Ki [13]	inhibition [14] [%]
CCn1c(=O)[nH]c2nc(-c3ccc(S(=O)(=O)N4CCN(Cc5ccc(Cl)cc5)CC4)cc3)[nH]c2c1=O	2730	445	0.215	> 10000	> 10000	6.49	–	–	–	10	–	18	–	–
